System: 953936-095-R-J2-PDC spheroids with HUVEC/MSC, viability
Assay: Anticancer human tumor 953936-095-R-J2-PDC patient-derived cervical squamous cell carcinoma cell line growth inhibition [PI3K]
Settings: for IC50: curve of first compound; for viability, T/C: stronger effect = lower value; active = viability on the fitted dose curve at most 10% of control; inactive = the rest
In short: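 Agents were dosed from a top concentration near clinical Cmax (otherwise 10 microM) in half-log decrements, alone or combined with PI3K inhibitors. The spheroids contain tumor cells plus endothelial (HUVEC) and MSC stroma; viability is measured.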
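Note: spheroids exposed to compounds for seven days before read-out.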

C#Cc1c(F)ccc2cc(O)cc(-c3ncc4c(N5CC6CCC(C5)N6)nc(OCC56CCCN5CC(F)C6)nc4c3F)c12 (configuration not stated) + COc1c(OCCCN2CCOCC2)ccc2c3n(c(=NC(=O)c4cnc(N)nc4)nc12)CCN3
> 10 µM: IC50 (second compound 0.00316 µM)
< 0.0316 µM: IC50 (second compound 0.0316 µM) | IC50 (second compound 0.1 µM) | IC50 (second compound 0.316 µM) | IC50 (second compound 1 µM)
inactive: viability, T/C (second compound 0.00316 µM, first compound 0.0316 µM) 81.9% | viability, T/C (second compound 0.00316 µM, first compound 0.1 µM) 87.8% | viability, T/C (second compound 0.00316 µM, first compound 0.316 µM) 86.6% | viability, T/C (second compound 0.00316 µM, first compound 1 µM) 92.2% | viability, T/C (second compound 0.00316 µM, first compound 3.16 µM) 72% | viability, T/C (second compound 0.00316 µM, first compound 10 µM) 58.9% | viability, T/C (second compound 0.01 µM, first compound 0.0316 µM) 75.5% | viability, T/C (second compound 0.01 µM, first compound 0.1 µM) 74.1% | viability, T/C (second compound 0.01 µM, first compound 0.316 µM) 69.1% | viability, T/C (second compound 0.01 µM, first compound 1 µM) 58.4% | viability, T/C (second compound 0.01 µM, first compound 3.16 µM) 54.3% | viability, T/C (second compound 0.01 µM, first compound 10 µM) 40% | viability, T/C (second compound 0.0316 µM, first compound 0.0316 µM) 40.1% | viability, T/C (second compound 0.0316 µM, first compound 0.1 µM) 39.5% | viability, T/C (second compound 0.0316 µM, first compound 0.316 µM) 38.7% | viability, T/C (second compound 0.0316 µM, first compound 1 µM) 33.8% | viability, T/C (second compound 0.0316 µM, first compound 3.16 µM) 25.7% | viability, T/C (second compound 0.0316 µM, first compound 10 µM) 19.6% | viability, T/C (second compound 0.1 µM, first compound 0.0316 µM) 18.3% | viability, T/C (second compound 0.1 µM, first compound 0.1 µM) 18.8% | viability, T/C (second compound 0.1 µM, first compound 0.316 µM) 14.1% | viability, T/C (second compound 0.1 µM, first compound 1 µM) 10.9%
3.92 µM: IC50 (second compound 0.01 µM)
active: viability, T/C (second compound 0.1 µM, first compound 3.16 µM) 8.08% | viability, T/C (second compound 0.1 µM, first compound 10 µM) 6.07% | viability, T/C (second compound 0.316 µM, first compound 0.0316 µM) 5.75% | viability, T/C (second compound 0.316 µM, first compound 0.1 µM) 4.83% | viability, T/C (second compound 0.316 µM, first compound 0.316 µM) 4.36% | viability, T/C (second compound 0.316 µM, first compound 1 µM) 3.39% | viability, T/C (second compound 0.316 µM, first compound 3.16 µM) 2.56% | viability, T/C (second compound 0.316 µM, first compound 10 µM) 1.89% | viability, T/C (second compound 1 µM, first compound 0.0316 µM) 1.56% | viability, T/C (second compound 1 µM, first compound 0.1 µM) 1.33% | viability, T/C (second compound 1 µM, first compound 0.316 µM) 0.98% | viability, T/C (second compound 1 µM, first compound 1 µM) 1.02% | viability, T/C (second compound 1 µM, first compound 3.16 µM) 0.79% | viability, T/C (second compound 1 µM, first compound 10 µM) 0.41%
